The subject of the data set is rodent carcinogenicity bioassays, tumor incidence. In words: CCRIS carcinogenicity studies. The gist of the method:
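Archive of carcinogenicity, mutagenicity, tumor promotion and tumor inhibition results drawn from journals, NCI reports and other sources, expert-reviewed; covers 1985-2011 and is no longer updated.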

Active and inactive are the calls of the source. How the calls were made is not given here.

Turning to `CCC1=C(C)CN(C(=O)NCCc2ccc(S(=O)(=O)NC(=O)NC3CCC(C)CC3)cc2)C1=O` (centres undefined), the carcinogen call is, setting by setting: (Species: DOG, Strain/Sex: BEAGLE/FEMALE, Route: ORAL, Dose: 0, 0.8, 16, 320 MG/KG BW IN GELATIN CAPSULE 1/D 7 D/WK FOR 12 MO (STUDY DURATION: 15 MO), Dose: 0, 0.8, 16, 320 MG/KG BW IN GELATIN CAPSULE 1/D 7 D/WK FOR 12 MO (STUDY DURATION: 15 MO)) “inactive; negative”; (Species: DOG, Strain/Sex: BEAGLE/MALE, Route: ORAL, Dose: 0, 0.8, 16, 320 MG/KG BW IN GELATIN CAPSULE 1/D 7 D/WK FOR 12 MO (STUDY DURATION: 13 MO), Dose: 0, 0.8, 16, 320 MG/KG BW IN GELATIN CAPSULE 1/D 7 D/WK FOR 12 MO (STUDY DURATION: 13 MO)) “inactive; negative”; (Species: RAT, Strain/Sex: WISTAR/FEMALE, Route: ORAL, Dose: 0, 20, 1000, 50000 PPM IN DIET FOR 12 MO (STUDY DURATION: 13 MO), Dose: 0, 20, 1000, 50000 PPM IN DIET FOR 12 MO (STUDY DURATION: 13 MO)) “inactive; negative”; (Species: RAT, Strain/Sex: WISTAR/MALE, Route: ORAL, Dose: 0, 20, 1000, 50000 PPM IN DIET FOR 12 MO (STUDY DURATION: 13 MO), Dose: 0, 20, 1000, 50000 PPM IN DIET FOR 12 MO (STUDY DURATION: 13 MO)) “inactive; negative”.

Take `Cc1cc2ccccc2c2ccc3c(c12)C=C[C@@H](O)[C@@H]3O`: the carcinogen call runs as follows: (Species: MOUSE, Strain/Sex: ICR/FEMALE, Route: INTRAPERITONEAL, Dose: 8 NMOL/5 µL DMSO ON DAY 1, 16 NMOL/10 µL ON DAY 8, AND 32 NMOL/20 µL ON DAY 15 OF AGE (STUDY DURATION: 35 WK), Tumor Site: Type of Lesion: LUNG: TUMORS) “active; positive”; (Species: MOUSE, Strain/Sex: ICR/MALE, Route: INTRAPERITONEAL, Dose: 8 NMOL/5 µL DMSO ON DAY 1, 16 NMOL/10 µL ON DAY 8, AND 32 NMOL/20 µL ON DAY 15 OF AGE (STUDY DURATION: 35 WK), Tumor Site: Type of Lesion: LUNG: TUMORS, LIVER: TUMORS) “active; positive”.

As for `CCCCN(N=O)C1CCC(=O)O1` (centres undefined), where the note is “Species: RAT, Strain/Sex: F344/MALE, Route: SUBCUTANEOUS, Dose: 38 UMOL/KG IN OLIVE OIL 1/WK FOR 10 WK, Tumor Site: Type of Lesion: INJECTION SITE: MALIGNANT FIBROUS HISTIOCYTOMA, LUNG: ADENOMA”, the carcinogen call is “active; positive”.

With `O[C@@H]1[C@H]2O[C@H]2c2c(ccc3cc4ccc5ccccc5c4nc23)[C@H]1O`, the carcinogen call reads like this: (Species: MOUSE, Strain/Sex: CD-1/FEMALE, Route: INTRAPERITONEAL, Dose: 0, 175 NMOL (TOTAL DOSE) ADMINISTERED AS 1/7 OF DOSE WITHIN 24 HR AFTER BIRTH, 2/7 OF DOSE AT 8 D OLD, 4/7 OF DOSE AT 15, Tumor Site: Type of Lesion: LIVER: TUMOR, LUNG: TUMOR) “active; positive”; (Species: MOUSE, Strain/Sex: CD-1/MALE, Route: INTRAPERITONEAL, Dose: 0, 175 NMOL (TOTAL DOSE) ADMINISTERED AS 1/7 OF DOSE WITHIN 24 HR AFTER BIRTH, 2/7 OF DOSE AT 8 D OLD, 4/7 OF DOSE AT 15, Tumor Site: Type of Lesion: LIVER: TUMOR, LUNG: TUMOR) “active; positive”.

As to `OCC(O)CCl` (centres undefined), the carcinogen call is, setting by setting: (Species: Rat, Strain/Sex: Sprague-Dawley/Female, Route: Oral, Dose: 0, 25, 100, 400 ppm in drinking water for 2 yr (Study duration: 104 wk), Dose: 0, 25, 100, 400 ppm in drinking water for 2 yr (Study duration: 104 wk), Tumor Site: Type of Lesion: Kidney: Renal tubule adenoma or carcinoma) “active; positive”; (Species: Rat, Strain/Sex: Sprague-Dawley/Male, Route: Oral, Dose: 0, 25, 100, 400 ppm in drinking water for 2 yr (Study duration: 100 wk), Dose: 0, 25, 100, 400 ppm in drinking water for 2 yr (Study duration: 100 wk), Tumor Site: Type of Lesion: Kidney: Renal tubule adenoma or carcinoma, Testes: Leydig cell tumor) “active; positive”.

Turning to `Nc1ccc(Cc2ccc(N)c(Cl)c2)cc1Cl`, the carcinogen call reads like this: (Species: MOUSE, Route: ORAL, Tumor Site: Type of Lesion: BLOOD VESSELS, LIVER) “active; positive”; (Species: RAT, Route: ORAL, Tumor Site: Type of Lesion: LIVER, LUNG) “active; positive”; (Species: RAT, Route: SUBCUTANEOUS, Tumor Site: Type of Lesion: LIVER, LUNG) “active; positive”; (Species: RAT, Strain/Sex: STRAIN-CD/FEMALE, Route: ORAL, Dose: 0, 1000 PPM IN PROTEIN-ADEQUATE (23%) DIET FOR 2 YR (STUDY DURATION: 2 YR), Tumor Site: Type of Lesion: LUNG: ADENOCARCINOMA) “active; positive”; (Species: RAT, Strain/Sex: STRAIN-CD/FEMALE, Route: ORAL, Dose: 0, 1000 PPM IN PROTEIN-DEFICIENT (7%) DIET FOR 16 MO (STUDY DURATION: 16 MO), Tumor Site: Type of Lesion: LUNG: ADENOCARCINOMA, MAMMARY GLAND: ADENOCARCINOMA) “active; positive”; (Species: RAT, Strain/Sex: STRAIN-CD/MALE, Route: ORAL, Dose: 0, 1000 PPM IN PROTEIN-ADEQUATE (23%) DIET FOR 2 YR (STUDY DURATION: 2 YR), Tumor Site: Type of Lesion: LUNG: ADENOCARCINOMA) “active; positive”. Further, the carcinogen call (Species: RAT, Strain/Sex: STRAIN-CD/MALE, Route: ORAL, Dose: 0, 1000 PPM IN PROTEIN-DEFICIENT (7%) DIET FOR 16 MO (STUDY DURATION: 16 MO), Tumor Site: Type of Lesion: LUNG: ADENOCARCINOMA, LIVER: HEPATOCELLULAR ADENOMA, HEPATOCELLULAR CARCINOMA) is “active; positive”.

In the case of `C1OC1C1CO1` (centres undefined), the carcinogen call by setting is: (Species: MOUSE, Route: DERMAL, Tumor Site: Type of Lesion: INTEGUMENTARY SYSTEM (SKIN)) “active; positive”; (Species: MOUSE, Route: INTRAPERITONEAL, Tumor Site: Type of Lesion: LUNG) “active; positive”; (Species: MOUSE, Route: SUBCUTANEOUS, Tumor Site: Type of Lesion: INJECTION SITE) “active; positive”; (Species: MOUSE, Strain/Sex: B6C3F1/FEMALE, Route: INHALATION, Dose: 0, 2.5, 5.0 PPM 6 HR/D 5 D/WK FOR 6 WK (STUDY DURATION: 18 MONTHS), Dose: 0, 2.5, 5.0 PPM 6 HR/D 5 D/WK FOR 6 WK (STUDY DURATION: 18 MONTHS), Tumor Site: Type of Lesion: HARDERIAN GLAND: TUMOR) “active; positive”; (Species: RAT, Route: SUBCUTANEOUS, Tumor Site: Type of Lesion: INJECTION SITE) “active; positive”; (Species: RAT, Strain/Sex: SPRAGUE-DAWLEY/FEMALE, Route: INHALATION, Dose: 0, 2.5, 5.0 PPM 6 HR/D 5 D/WK FOR 6 WK (STUDY DURATION: 18 MONTHS), Dose: 0, 2.5, 5.0 PPM 6 HR/D 5 D/WK FOR 6 WK (STUDY DURATION: 18 MONTHS), Tumor Site: Type of Lesion: NASAL MUCOSA: TUMOR) “active; positive”.

For `CCC1(c2ccccc2)C(=O)N=C(O)NC1=O` (centres undefined), the carcinogen call (Species: MOUSE, Route: ORAL, Tumor Site: Type of Lesion: LIVER) is “active; positive”; the carcinogen call (Species: MOUSE, Strain/Sex: C3H/HE/MALE, Route: ORAL, Dose: 0, 85 MG/KG/D IN DIET FOR DURATION OF STUDY (STUDY DURATION: 91 WK)) was “inactive; negative”; the carcinogen call (Species: MOUSE, Strain/Sex: C57BL/MALE, Route: ORAL, Dose: 0, 85 MG/KG/D IN DIET FOR DURATION OF STUDY (STUDY DURATION: 100 WK)) was “inactive; negative”; the carcinogen call (Species: RAT, Route: ORAL, Tumor Site: Type of Lesion: LIVER) is “active; positive”; the carcinogen call (Species: RAT, Strain/Sex: F344/MALE, Route: ORAL, Dose: 0, 8, 30, 125, 500 PPM IN DIET FOR 104 WK (STUDY DURATION: 104 WK), Dose: 0, 8, 30, 125, 500 PPM IN DIET FOR 104 WK (STUDY DURATION: 104 WK)) was “inactive; negative”.

The values above are taken from PubChem BioAssay AID1259411 (Chemical Carcinogenesis Research Information System (CCRIS), 2018).
